The values that follow come from US11008313B2, “Substituted 1-methyl-1,2,3,4-tetrahydroisoquinoline molecules as PCSK9 allosteric binders” (Merck Sharp & Dohme Corp., priority 2016, dated 2021).

In test [1] the target is T1, PCSK9 (Homo sapiens, UniProt Q8NBP7). The test can be described thus: Differential scanning calorimetry (DSC) assay, direct binding / thermal stabilization of PCSK9. The note with it: Tm(with compound)−Tm(no compound); 2 μM PCSK9, 300 μM test compound. On the procedure: Differential scanning calorimetry (DSC) was used as a biophysical method to confirm direct binding to PCSK9. A solution containing 2 μM PCSK9 with or without 300 μM test compound in 25 mM HEPES (pH 7.5)/150 mM NaCl/1 mM CaCl2/3.75% DMSO was transferred to the sample cell of the DSC instrument, while buffer alone was placed in the reference cell. Both cells were heated at a constant rate (200° C./hr) from 20-80° C. while recording the excess heat capacity of the sample cell relative to the reference cell. Each thermogram was analyzed to provide the melting temperature (Tm) of the protein.
T1 sequence (Q8NBP7 153-692): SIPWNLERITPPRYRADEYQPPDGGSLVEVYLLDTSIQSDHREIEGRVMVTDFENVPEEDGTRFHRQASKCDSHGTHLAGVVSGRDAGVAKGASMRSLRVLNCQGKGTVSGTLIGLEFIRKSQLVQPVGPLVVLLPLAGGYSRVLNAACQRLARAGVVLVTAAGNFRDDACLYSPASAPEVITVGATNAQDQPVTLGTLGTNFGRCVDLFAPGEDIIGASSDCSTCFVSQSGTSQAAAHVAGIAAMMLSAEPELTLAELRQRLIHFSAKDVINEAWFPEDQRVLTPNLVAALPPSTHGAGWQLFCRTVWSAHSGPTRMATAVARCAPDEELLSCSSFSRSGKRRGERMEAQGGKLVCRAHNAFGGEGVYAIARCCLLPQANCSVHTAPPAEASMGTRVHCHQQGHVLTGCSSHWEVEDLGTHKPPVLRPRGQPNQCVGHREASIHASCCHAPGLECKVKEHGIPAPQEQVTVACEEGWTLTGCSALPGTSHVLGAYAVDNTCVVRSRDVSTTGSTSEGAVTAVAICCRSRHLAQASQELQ
The higher the temperature shift generally, the higher the affinity.
(Differential scanning calorimetry records heat flow against a reference as temperature is scanned.)

For test [2], the target named is T1, PCSK9. The test can be described thus: Fluorescence polarization competition binding assay (probe: compound of Example 57). The note with it: 2 μM PCSK9, 50 nM compound of Example 57 as probe, overnight incubation; read-out: FP IC. On the procedure:
Relative compound affinities were determined using a competition binding assay with a fluorescence polarization format. Solution (49 μL) containing 2 μM PCSK9 and 50 nM compound of Example 57 in 20 mM HEPES (pH 7.5)/150 mM NaCl/1 mM CaCl2/0.005% P-20 was dispensed to wells of a 384-well black non-binding microplate before the addition of 1 μL of test compound or DMSO. After mixing, the plate was centrifuged and sealed for overnight incubation in the dark. The anisotropy signal was read using a fluorescence polarization protocol on a Perkin-Elmer Envision plate reader. The % inhibition was determined relative to the window defined by the DMSO control wells and wells containing 50 nM probe in the absence of PCSK9.
On the technique in general: Polarisation of emitted light reports the rotation of a fluorescent probe.

What is called ΔTm is the change in melting temperature against a reference sample. Regarding `C[C@]1(CC(=O)Nc2nccs2)NCCc2cc(OCC3CCCCO3)c(Oc3ccc(C(=O)Nc4n[nH]c5ncccc45)c(F)c3)cc21` (single isomer, unassigned) [Example 75, 2-fluoro-4-(((R)-1-methyl-1-(2-oxo-2-(thiazol-2-ylamino)ethyl)-6-(((R or S)-tetrahydro-2H-pyran-2-yl)methoxy)-1,2,3,4-tetrahydroisoquinolin-7-yl)oxy)-N-(1H-pyrazolo[3,4-b]pyridin-3-yl)benzamide], at PCSK9 [1], the ΔTm at 300 µM stood at 6.18 °C. Besides, the IC50 on PCSK9 [2] worked out at 410 nM.
For `Cn1nccc1NC(=O)c1ccc(Oc2cc3c(cc2OCC2CCCCO2)CCN[C@]3(C)CC(=O)Nc2nccs2)cc1F` (single isomer, unassigned) [Example 77, 2-fluoro-4-(((R)-1-methyl-1-(2-oxo-2-(thiazol-2-ylamino)ethyl)-6-(((R or S)-tetrahydro-2H-pyran-2-yl)methoxy)-1,2,3,4-tetrahydroisoquinolin-7-yl)oxy)-N-(1-methyl-1H-pyrazol-5-yl)benzamide] the same measures were 6.67 °C and 591 nM.
Take `C[C@]1(CC(=O)Nc2nccs2)NCCc2cc(OCC3CCCCO3)c(Oc3cccc(F)c3)cc21` (single isomer, unassigned) [Example 80, 2-((1R)-7-(3-fluorophenoxy)-1-methyl-6-(((R or S)-tetrahydro-2H-pyran-2-yl)methoxy)-1,2,3,4-tetrahydroisoquinolin-1-yl)-N-(thiazol-2-yl)acetamide]: the ΔTm at 300 µM at PCSK9 [1] worked out at 6.09 °C. Besides, the IC50 at PCSK9 [2] was 550 nM.
Take `C[C@]1(CC(=O)Nc2nccs2)NCCc2cc(OCC3CCCCO3)c(Oc3cccc(F)c3)cc21` (single isomer, unassigned) [Example 81, 2-((1R)-7-(3-fluorophenoxy)-1-methyl-6-(((S or R)-tetrahydro-2H-pyran-2-yl)methoxy)-1,2,3,4-tetrahydroisoquinolin-1-yl)-N-(thiazol-2-yl)acetamide]: the “DSC ΔTm” value on PCSK9 [1] was found to be 6.585 °C. Moreover, at PCSK9 [2], the IC50 stood at 550 nM.
For `COc1cc2c3cc1Oc1ccc(C(=O)O)c(c1)OCCCCCCc1csc(n1)NC(=O)C[C@@]3(C)NCC2` [Example 1, (Z)-36-methoxy-31-methyl-5-oxo-31,32,33,34-tetrahydro-2,14-dioxa-6-aza-7(2,4)-thiazola-3(7,1)-isoquinolina-1(1,3)-benzenacyclotetradecaphane-14-carboxylic acid], the ΔTm at 300 µM at PCSK9 [1] is 4.29 °C. Besides, on PCSK9 [2], the IC50 stood at 3670 nM.
Take `COc1cc2c3cc1Oc1ccc(C(=O)O)c(c1)OC/C=C\CCc1csc(n1)NC(=O)C[C@@]3(C)NCC2` [Example 2, (R,72Z)-36-methoxy-31-methyl-5-oxo-31,32,33,34-tetrahydro-2,13-dioxa-6-aza-7(2,4)-thiazola-3(7,1)-isoquinolina-1(1,3)-benzenacyclotridecaphan-10-ene-14-carboxylic acid]: the ΔTm at 300 µM at PCSK9 [1] worked out at 6.21 °C. Moreover, at PCSK9 [2], the IC50 came out at 1240 nM.
On to `COC(=O)c1ccc2cc1OCCCCCc1csc(n1)NC(=O)C[C@@]1(C)NCCc3cc(OC)c(cc31)O2` [Example 3, methyl (R,Z)-36-methoxy-31-methyl-5-oxo-31,32,33,34-tetrahydro-2,13-dioxa-6-aza-7(2,4)-thiazola-3(7,1)-isoquinolina-1(1,3)-benzenacyclotridecaphane-14-carboxylate], for which, at PCSK9 [1], the thermal shift (ΔTm) at 300 µM was found to be 4.92 °C. Also, on PCSK9 [2], the IC50 came to 1250 nM.
Regarding `COc1cc2c(cc1Oc1ccc(C(=O)O)c(F)c1)[C@@](C)(CC(=O)Nc1nccs1)NCC2` [Example 4, (R)-2-fluoro-4-((6-methoxy-1-methyl-1-(2-oxo-2-(thiazol-2-ylamino)ethyl)-1,2,3,4-tetrahydroisoquinolin-7-yl)oxy)benzoic acid], the ΔTm at 300 µM at PCSK9 [1] amounted to 7.06 °C. Also, the IC50 at PCSK9 [2] worked out at 487 nM.
`COc1cc2c(cc1Oc1cc(F)c(C(=O)O)c(F)c1)[C@@](C)(CC(=O)Nc1nccs1)NCC2` [Example 5, (R)-2,6-difluoro-4-((6-methoxy-1-methyl-1-(2-oxo-2-(thiazol-2-ylamino)ethyl)-1,2,3,4-tetrahydroisoquinolin-7-yl)oxy)benzoic acid]: at PCSK9 [1], the shift in melting temperature (ΔTm) at 300 µM was 6.99 °C. Further, the IC50 at PCSK9 [2] stood at 561 nM.
For `COc1cc2c(cc1Oc1ccc3cnccc3c1)[C@@](C)(CC(=O)Nc1nccs1)NCC2` [Example 6, (R)-2-(7-(isoquinolin-6-yloxy)-6-methoxy-1-methyl-1,2,3,4-tetrahydroisoquinolin-1-yl)-N-(thiazol-2-yl)acetamide] the same measures were 5.78 °C and 648 nM.
On to `COc1cc2c(cc1Oc1ccnc(F)c1)[C@@](C)(CC(=O)Nc1nccs1)NCC2` [Example 7, (R)-2-(7-((2-fluoropyridin-4-yl)oxy)-6-methoxy-1-methyl-1,2,3,4-tetrahydroisoquinolin-1-yl)-N-(thiazol-2-yl)acetamide], for which the shift in melting temperature (ΔTm) at 300 µM at PCSK9 [1] is 5.59 °C. Further, the IC50 at PCSK9 [2] is 652 nM.
Regarding `COc1cc2c(cc1Oc1cncc(F)c1)[C@@](C)(CC(=O)Nc1nccs1)NCC2` [Example 8, (R)-2-(7-((5-fluoropyridin-3-yl)oxy)-6-methoxy-1-methyl-1,2,3,4-tetrahydroisoquinolin-1-yl)-N-(thiazol-2-yl)acetamide], at PCSK9 [1], the ΔTm at 300 µM came to 5.44 °C. For the same compound, at PCSK9 [2], the IC50 came to 753 nM.
Take `COc1cc2c(cc1Oc1cccc(F)c1)[C@@](C)(CC(=O)Nc1nccs1)NCC2` [Example 9, (R)-2-(7-(3-fluorophenoxy)-6-methoxy-1-methyl-1,2,3,4-tetrahydroisoquinolin-1-yl)-N-(thiazol-2-yl)acetamide]: the thermal shift (ΔTm) at 300 µM on PCSK9 [1] was found to be 5.92 °C. The IC50 at PCSK9 [2] was determined as 847 nM.
Consider `COc1ccc(Oc2cc3c(cc2OC)CCN[C@]3(C)CC(=O)Nc2nccs2)cc1F` [Example 10, (R)-2-(7-(3-fluoro-4-methoxyphenoxy)-6-methoxy-1-methyl-1,2,3,4-tetrahydroisoquinolin-1-yl)-N-(thiazol-2-yl)acetamide], for which the ΔTm at 300 µM on PCSK9 [1] was 5.55 °C. In addition, the IC50 at PCSK9 [2] was determined as 902 nM.
For `COc1cccc(NC(=O)C[C@@]2(C)NCCc3cc(OC)c(Oc4cccc(F)c4)cc32)c1` [Example 11, (R)-2-(7-(3-fluorophenoxy)-6-methoxy-1-methyl-1,2,3,4-tetrahydroisoquinolin-1-yl)-N-(3-methoxyphenyl)acetamide] the same measures were 5.69 °C and 756 nM.
In the case of `COc1cc2c(cc1Oc1cccc(F)c1)[C@@](C)(CC(=O)Nc1cccc3[nH]ccc13)NCC2` [Example 12, (R)-2-(7-(3-fluorophenoxy)-6-methoxy-1-methyl-1,2,3,4-tetrahydroisoquinolin-1-yl)-N-(1H-indol-4-yl)acetamide], the ΔTm at 300 µM at PCSK9 [1] was -0.225 °C. Besides, the IC50 on PCSK9 [2] turned out to be 753 nM.
As to `C[C@]1(CC(=O)Nc2nccs2)NCCc2cc(OCC3CCCO3)c(Oc3ccc(-c4ccc(C(=O)O)cc4)c(F)c3)cc21` (some centres unmarked) [Example 13], the thermal shift (ΔTm) at 300 µM on PCSK9 [1] was determined as 8.4 °C. The IC50 on PCSK9 [2] turned out to be 99.3 nM.
Turning to `COc1cc2c(cc1Oc1ccc(-c3c[nH]c(C(=O)O)c3)c(F)c1)[C@@](C)(CC(=O)Nc1nccs1)NCC2` [Example 14, (R)-4-(2-fluoro-4-((6-methoxy-1-methyl-1-(2-oxo-2-(thiazol-2-ylamino)ethyl)-1,2,3,4-tetrahydroisoquinolin-7-yl)oxy)phenyl)-1H-pyrrole-2-carboxylic acid], at PCSK9 [1], the ΔTm at 300 µM stood at 5.89 °C. At PCSK9 [2], the IC50 came to 0.237 nM.
`COC(=O)C1(c2ccc(-c3ccc(Oc4cc5c(cc4OC)CCN[C@]5(C)CC(=O)Nc4nccs4)cn3)cc2)CC1` [Example 15, methyl (R)-1-(4-(5-((6-methoxy-1-methyl-1-(2-oxo-2-(thiazol-2-ylamino)ethyl)-1,2,3,4-tetrahydroisoquinolin-7-yl)oxy)pyridin-2-yl)phenyl)cyclopropane-1-carboxylate]: the shift in melting temperature (ΔTm) at 300 µM at PCSK9 [1] turned out to be 3.31 °C. Besides, on PCSK9 [2], the IC50 is 3.76 nM.
For `COC(=O)CCc1ccc(-c2ccc(Oc3cc4c(cc3OC)CCN[C@]4(C)CC(=O)Nc3nccs3)cn2)cc1` [Example 16, methyl (R)-3-(4-(5-((6-methoxy-1-methyl-1-(2-oxo-2-(thiazol-2-ylamino)ethyl)-1,2,3,4-tetrahydroisoquinolin-7-yl)oxy)pyridin-2-yl)phenyl)propanoate] the same measures were 3.57 °C and 4.15 nM.
Consider `COC(=O)c1cc(-c2ccc(Oc3cc4c(cc3OC)CCN[C@]4(C)CC(=O)Nc3nccs3)cn2)c[nH]1` [Example 17, methyl (R)-4-(5-((6-methoxy-1-methyl-1-(2-oxo-2-(thiazol-2-ylamino)ethyl)-1,2,3,4-tetrahydroisoquinolin-7-yl)oxy)pyridin-2-yl)-1H-pyrrole-2-carboxylate], for which the ΔTm at 300 µM at PCSK9 [1] amounted to 2.62 °C. For the same compound, the IC50 at PCSK9 [2] stood at 11.5 nM.
For the compound `C[C@]1(CC(=O)Nc2nccs2)NCCc2cc(OCc3ccccn3)c(Oc3ccc(-c4ccc(C(=O)O)cc4)c(F)c3)cc21` [Example 18, (R)-2′-fluoro-4′-((1-methyl-1-(2-oxo-2-(thiazol-2-ylamino)ethyl)-6-(pyridin-2-ylmethoxy)-1,2,3,4-tetrahydroisoquinolin-7-yl)oxy)-[1,1′-biphenyl]-4-carboxylic acid], the ΔTm at 300 µM on PCSK9 [1] stood at 7.62 °C. The IC50 on PCSK9 [2] came to 94.3 nM.
